One compound from US20210177814A1, “USE OF GUANABENZ OR DERIVATES THEREOF FOR THE TREATMENT OF TYPE I IFN-DEPENDENT PATHOLOGIES” (INSERM (Institut National de la Santé et de la Recherche …, priority 2018, published 2021) can be followed below.

Each structure is given as a SMILES string. “Also recorded” adds a separate entry of the source.

One data set has as its target T1, TLR9 (Mus musculus, UniProt Q9EQU3).
T1 construct: from tissue; host or cells: whole animal: C57BL/6, FVB and FVB GADD34ΔC/ΔC mice
T1 sequence (Q9EQU3 26-1032): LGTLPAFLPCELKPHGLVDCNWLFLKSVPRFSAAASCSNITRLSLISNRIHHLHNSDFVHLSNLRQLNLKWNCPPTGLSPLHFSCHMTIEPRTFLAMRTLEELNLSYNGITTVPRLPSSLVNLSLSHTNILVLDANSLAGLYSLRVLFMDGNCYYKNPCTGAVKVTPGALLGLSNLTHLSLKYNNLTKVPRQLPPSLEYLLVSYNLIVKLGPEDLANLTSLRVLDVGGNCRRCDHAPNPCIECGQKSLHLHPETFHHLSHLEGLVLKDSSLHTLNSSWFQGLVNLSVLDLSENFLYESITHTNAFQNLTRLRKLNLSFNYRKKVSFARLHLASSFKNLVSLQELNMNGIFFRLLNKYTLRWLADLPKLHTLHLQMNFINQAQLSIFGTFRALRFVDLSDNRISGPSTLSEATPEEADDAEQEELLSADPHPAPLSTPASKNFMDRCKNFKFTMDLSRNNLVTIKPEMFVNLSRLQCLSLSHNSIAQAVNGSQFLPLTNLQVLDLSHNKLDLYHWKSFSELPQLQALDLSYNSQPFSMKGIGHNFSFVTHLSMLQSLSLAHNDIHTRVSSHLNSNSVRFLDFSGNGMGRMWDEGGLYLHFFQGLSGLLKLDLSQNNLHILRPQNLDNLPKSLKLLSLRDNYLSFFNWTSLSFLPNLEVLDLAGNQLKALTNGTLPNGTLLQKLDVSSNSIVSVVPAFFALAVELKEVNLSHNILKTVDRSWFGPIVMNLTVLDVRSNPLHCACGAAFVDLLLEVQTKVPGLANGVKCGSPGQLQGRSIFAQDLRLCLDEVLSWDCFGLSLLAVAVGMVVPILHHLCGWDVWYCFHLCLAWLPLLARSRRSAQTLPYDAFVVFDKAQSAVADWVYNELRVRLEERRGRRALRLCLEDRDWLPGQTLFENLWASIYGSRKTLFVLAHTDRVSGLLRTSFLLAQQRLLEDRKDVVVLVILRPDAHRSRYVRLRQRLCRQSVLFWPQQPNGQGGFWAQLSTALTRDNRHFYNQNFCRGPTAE
The experiment in a line: Cytokine production and gene expression in sorted Flt3L-DC pDCs activated with CpG ODN 1585. Format: cell-based. The method, then:
FIG. 1: Guanabenz inhibits TLR3 and TLR9 activation in mouse Flt3-L DCs and human blood pDCs. A) Sorted bone marrow derived Flt3L-DCs were activated for 6 h with 10 μg/mL poly I:C LMW (TLR3 in DC1) or 1 μM ODN 1585 (TLR9 in pDCs). GBZ was added at 50 μM and inhibited IFN-β and Interleukin-6 (IL-6) production in activated cells. B) […], hTLR3, hTLR9 and hTLR7 expressed in the reporter HEK-Blue™ cells are inhibited by GBZ. TLR-expressing HEK-Blue™ cells were respectively activated with 100 ng/mL LPS, 10 μg/mL poly I:C LMW, 2.5 μM ODN 2006 or 5 μg/mL imiquimod, respectively. GBZ was added at 50 μM. TLR activity was measured indirectly through SEAP activity as absorbance at 405 nm. GBZ inhibited human TLR3, TLR7 and TLR9 signaling, but not TLR4._C) Human primary pDCs were isolated from blood and activated either with 3 μM CpG ODN 2216 (top) or with 2% of anti-DNA IgG containing serum from lupus patients (bottom). GBZ was added at 50 μM. Protein concentration of IFN-α and TNF-α secreted were measured at the indicated time points or at 16 h. Statistical significance was assigned using two tailed t-test on at least n=3 independent experiments (* p<0.05; ** p<0.005; ***p<0.0005).
BM-derived DCs were differentiated in vitro from the bone marrow of 6-8 weeks old male mice, using either FLT3 ligand or GM-CSF. Flt3L-DCs were used for experiments between days 6 and 7. Flt3L was produced using B16-Flt3L hybridoma cells. Bone marrow progenitors were plated at 1.5 10^6 cells/ml, 4 ml/well in 6 well plate, and cultivated with RPMI (GIBCO), 10% FCS (Sigma Aldrich), 100 units/ml penicillin and 100 μg/ml streptomycin (GIBCO), 50 μM b-mercaptoethanol (VWR) and Flt3L. For sorted Flt3L-DCs, cells were gently harvested at day 7 with cold PBS 2% FCS, centrifuged 1200 rpm 5 min at 4° C., counted and stained with for 30 mins at 4° C. Cells were sorted with the FACS ARIASorp. Cells were kept on ice all the time. […]
ODN 2006, 2216, 1585 and 1826, Poly I:C High and Low Molecular Weight are from InvivoGen, San Diego, Calif.; lipopolysaccharide (Escherichia coli 055:B5), clonidine, chloroquine, D-(+)-Galactosamine hydrochloride and 25-HC are from Sigma Aldrich; Guanabenz is from Tocris Bioscience. For quantitative PCR, total RNAs were extracted and purified using the RNeasy Mini Kit (Qiagen). […] Each gene transcripts were quantified by SYBR Green method with 7500Fast (Applied Biosystems). The relative amount of each transcript was determined by normalizing to internal housekeeping gene expression.
Mouse IFN-β quantification in culture supernatant was performed using the Mouse Interferon Beta ELISA kit (PBL InterferonSource); mouse IL-6, TNFα, IL-10, human TNFα and human IFNα were quantified using ELISA kit (eBioscience) respectively, according to manufacturer instructions. […]

Data set [1] concerns TLR9 signal transduction pathway. Put plainly: Phospho-flow detection of rpS6 phosphorylation after CpG exposure. Format: cell-based. Particulars: CAL-1 and human B cells, 15 min to 1 h of CpG exposure, data not shown.
Where [2] appears, read: sorted pDCs, 1 μM ODN 1585 6 h, GBZ 50 μM.

Turning to `NC(N)=N/N=C/c1c(Cl)cccc1Cl` [GBZ, 2-(2,6-dichlorobenzylidene)-hydrazinecarboximidamide], the “transcriptional response to CpG ODN (ifna4, Tnfa, isg15, Il12 by qPCR)” value at TLR9 (pDC, data not shown) is listed as “inhibited completely”. The “impact on cell fitness” value on TLR9 (sorted cDC1 and pDCs treated with GBZ) is “without any impact”. Moreover, on TLR9 (setting [2]), the IFN-β production entry was “nearly abrogated; also recorded: inhibited” and the IL-6 production result is “nearly abrogated; also recorded: inhibited”. The rpS6 phosphorylation result in data set [1] is listed as “strong reduction”.
